# Measured values from paper PMC8406801, “Naringenin Inhibits Platelet Activation and Arterial Thrombosis Through Inhibition of Phosphoinositide 3-Kinase and Cyclic Nucleotide Signaling” (Frontiers in Pharmacology, 2021).
# Several values for one entry are separate records, joined by “and”; a condition that tells them apart may be missing. Identical values can stand only once.
# Assays:
# washed rat platelets = assay: ADP (5 μM)-stimulated aggregation of washed platelets (Figure S1); assay type: cell-based; conditions: 200, 400 and 800 μM similar efficacy
# Excerpt: Platelet aggregation was induced by ADP using washed platelets and PRP. […]
# (1 picture or pasted object on this page, not shown here)
# [1] = system: Akt Thr308 phosphorylation; assay: Immunoblotting of phospho-Akt (Thr308) in ADP-stimulated washed platelets; assay type: cell-based, rat; conditions: ADP 10 μmol/L, single replicates; for p-Akt Thr308 / t-Akt: raw data
# Method: For in vitro platelet aggregation, aliquots of washed platelets were preincubated with vehicle or various concentrations of naringenin for 5 min and stimulated with ADP (10 μmol/L) under stirring at 37°C for 5 min. For ex vivo platelet aggregation, PRP was incubated at 37°C for 5 min and stimulated with ADP (5 μmol/L) under stirring at 37 °C. The platelet aggregation was terminated by adding ethylenediaminetetraacetic acid (EDTA; 10 mM). Total protein was prepared using RIPA lysis buffer and protein content was determined by bicinchoninic acid (BCA) protein assay kit. Equal amounts of platelet proteins (30 μg) were separated on 10% SDS polyacrylamide gel electrophoresis (SDS-PAGE) and then transferred to poly vinylidene difluoride (PVDF) membranes and subjected to western blot. Blots were blocked with TBS-Tween 20 containing 5% BSA and probed with primary antibodies diluted in blocking solution at 4°C overnight followed by incubation with the corresponding HRP secondary antibodies. The protein bands were visualized using enhanced chemiluminescence (ECL).
# FIGURE 4 Naringenin inhibits PI3K-mediated signaling in ADP-induced platelets. Washed rat platelets were preincubated without or with naringenin at 37°C for 5 min, and then stimulated with ADP (10 μmol/L) under stirring for 5 min. Platelet proteins were then extracted and analyzed by immunoblotting using PI3Kp110β antibody (A) and phospho-specific antibodies such as Akt^Ser473 (B), Akt^Thr308 (C), ERK1/2^Thr202/Tyr204 (D) and GSK3β^Ser9 (E). Total level of GAPDH was measured on each sample as a loading control. The blots shown are representative of three separate experiments. The relative protein expression levels were quantified by ImageJ 1.47v software. The level of relative protein expression obtained with vehicle control (0 μM) was taken as 1. R represents the level of relative protein expression in resting platelets. Data are expressed as means ± SD (n = 3). *p < 0.05, **p < 0.01, ***p < 0.001 compared with the vehicle control group.
# cAMP = assay: Measurement of cAMP in washed platelets (ELISA); assay type: cell-based, rat; conditions: single replicates
# Method: Washed platelets were preincubated with vehicle or various concentrations of naringenin in the presence of 2 mM CaCl2 at 37°C for 5 min and then stimulated with ADP (10 μM) for 5 min for platelet aggregation. The reaction was terminated by adding EDTA (10 mM). The platelets were boiled for 5 min at 100 °C followed by centrifugation at 13,000 × g for 5 min cAMP and cGMP levels in the supernatant were measured using cAMP or cGMP enzyme immunoassay kits (Cayman Chemicals, Ann Arbor, MI, United States).
# FIGURE 6 Naringenin elevates platelet cGMP levels and inhibits phosphodiesterase activity. The levels of cAMP (A) and cGMP (B) in washed platelets preincubated with vehicle or naringenin (100, 200, 400, and 800 μmol/L) were determined after stimulation with ADP (10 μmol/L) using ELISA kits. Similarly, the levels of cAMP (C) and cGMP (D) were determined in resting platelets incubated with naringenin (200, 400, and 800 μmol/L) or vehicle for 5 min. R represents the levels of cAMP or cGMP in resting platelets. Data are expressed as means ± SD (n = 4). *p < 0.05, ***p < 0.001 compared with the vehicle control group. The effects of naringenin on phosphodiesterase activity were measured by HPLC on the hydrolysis of cAMP (E) and cGMP (F). The level of phosphodiesterase activity obtained with vehicle control (0 μM) was taken as 100%. Data are expressed as means ± SD (n = 3). *p < 0.05, ***p < 0.001 compared with the vehicle control group.
# [2] = system: PDE extracts prepared from rat PRP (cAMP hydrolysis); assay: Phosphodiesterase activity in platelet extracts, hydrolysis of cAMP (HPLC); assay type: biochemical; conditions: vehicle = 100%, single replicates
# Method: The effects of naringenin on PDE activity were determined using high-performance liquid chromatography (HPLC) ([Hu et al., 2011]). Briefly, PRP was pelleted by centrifugation for 10 min at 900 × g and homogenized in PBS containing 0.1% Triton X-100 using an ultrasonic homogenizer. After centrifugation at 12,000 × g for 20 min at 4°C, the supernatant was subjected to PDE activity assay.
# DMSO vehicle or different concentrations naringenin were added to assay buffer (137 mM NaCl, 2.7 mM KCl, 8.8 mM Na2HPO4, 1.5 mM KH2PO4, 1 mM CaCl2, 1 mM MgCl2, pH 7,4) containing cAMP or cGMP. The reaction was initiated by adding 30 μL PDE extracts prepared from rat PRP as described above. Some extracts were boiled for 3 min to inactivate PDE before addition. After incubation for 30 min at […], the reaction was terminated by boiling the mixture for 3 min. Subsequently, the mixture was cooled on ice followed by centrifugation at 12,000 × g for 20 min at 4°C. The supernatant was subjected cAMP or cGMP assay using HPLC. PDE activity was expressed as percentages of the hydrolysis of cAMP or cGMP.
compound,measurement,setting,value
O=C1C[C@@H](c2ccc(O)cc2)Oc2cc(O)cc(O)c21 [Naringenin],effect on ADP (5 μM)-stimulated platelet aggregation,washed rat platelets,significant levels of inhibition
same,p-Akt Thr308 / t-Akt,[1]; 100 μM,0.1089 and 0.0807 and 0.1359
same,p-Akt Thr308 / t-Akt (Fold to ADP only),[1]; 100 μM,0.3238 Fold to ADP only and 0.2400 Fold to ADP only and 0.4039 Fold to ADP only
same,p-Akt Thr308 / t-Akt,[1]; 200 μM,0.0912 and 0.0481 and 0.0944
same,p-Akt Thr308 / t-Akt (Fold to ADP only),[1]; 200 μM,0.2711 Fold to ADP only and 0.1429 Fold to ADP only and 0.2806 Fold to ADP only
same,p-Akt Thr308 / t-Akt,[1]; 400 μM,0.0712 and 0.0237 and 0.0830
same,p-Akt Thr308 / t-Akt (Fold to ADP only),[1]; 400 μM,0.2116 Fold to ADP only and 0.0703 Fold to ADP only and 0.2468 Fold to ADP only
same,p-Akt Thr308 / t-Akt,[1]; 800 μM,0.0216 and 0.0199 and 0.0438
same,p-Akt Thr308 / t-Akt (Fold to ADP only),[1]; 800 μM,0.0641 Fold to ADP only and 0.0591 Fold to ADP only and 0.1303 Fold to ADP only
same,cAMP release,"cAMP; ADP 10 μmol/L-stimulated platelets, 100 μM",21.36 pmol/mL and 22.41 pmol/mL and 21.09 pmol/mL and 22.01 pmol/mL
same,cAMP release,"cAMP; ADP 10 μmol/L-stimulated platelets, 200 μM",21.75 pmol/mL and 22.14 pmol/mL and 22.01 pmol/mL and 23.59 pmol/mL
same,cAMP release,"cAMP; ADP 10 μmol/L-stimulated platelets, 400 μM",27.54 pmol/mL and 26.36 pmol/mL and 22.01 pmol/mL and 20.04 pmol/mL
same,cAMP release,"cAMP; ADP 10 μmol/L-stimulated platelets, 800 μM",22.54 pmol/mL and 21.62 pmol/mL and 23.20 pmol/mL and 26.75 pmol/mL
same,cAMP release,"cAMP; resting platelets, 200 μM, 5 min",19.51 pmol/mL and 23.07 pmol/mL and 21.88 pmol/mL and 25.17 pmol/mL
same,cAMP release,"cAMP; resting platelets, 400 μM, 5 min",23.59 pmol/mL and 22.67 pmol/mL and 21.88 pmol/mL and 20.96 pmol/mL
same,cAMP release,"cAMP; resting platelets, 800 μM, 5 min",19.64 pmol/mL and 23.59 pmol/mL and 22.67 pmol/mL and 22.14 pmol/mL
same,PDE activity (%),[2]; 100 μM,78.12% and 75.15% and 93.45%
same,PDE activity (%),[2]; 200 μM,76.39% and 84.94% and 63.29%
same,PDE activity (%),[2]; 400 μM,79.01% and 85.41% and 68.34%
same,PDE activity (%),[2]; 800 μM,43.72% and 69.43% and 76.24%
